System: cytokine-stimulated human umbilical vein endothelial cells
Experiment: Cell Adhesion Assay: adherence of fluorescently-labelled leukocytes to endothelial cell monolayers
Type: cell-based
Settings: inhibition of cytokine-stimulated adhesion minus basal adhesion, calcein-AM labelled leukocytes on HUVEC monolayers
Method: The antiadhesion activity of compounds of the invention was determined using a modification of the previously described method, Jurgensen, C. H. et. al., J. Immunol. 144: 653-661. The adhesiveness of cytokine-stimulated human umbilical vein endothelial cells was assessed by quantitating the adherence of fluorescently-labelled (calcein-AM, Molecular Probes, Eugene, Oreg.) leukocytes to endothelial cell monolayers. Activity was determined by calculating inhibition of cytokine-stimulated adhesion minus the basal adhesion (unstimulated).

| SMILES | IC50 | IC50 (Homo sapiens) |
| --- | --- | --- |
| COCCOCCOCCOCCOCCOCCOCCOCCOCCOC(=O)/C=C/c1ccc(-c2nc3c(=O)n(CC(C)C)c(=O)n(CC(C)C)c3[nH]2)cc1 [Example 43, (E)-4-(1,3-bis(2-methylpropyl)-1,2,3,6-tetrahydro-2,6-dioxo-9H-purin-8-yl)cinnamic Acid Nonaethylene Glycol Methyl Ether Ester] | 7.1 ± 2 nM |  |
| COCCOCCOCCOCCOCCOCCOCCOCCOCCOC(=O)/C=C/c1ccc(-c2nc3c(=O)n(CC4CCC4)c(=O)n(CC4CCC4)c3[nH]2)cc1 [Example 61, (E)-4-(1,3-bis(cyclobutylmethyl)-1,2,3,6-tetrahydro-2,6-dioxo-9H-purin-8-yl)cinnamic Acid Nonaethylene Glycol Methyl Ether Ester] | 11 ± 4 nM |  |
| COCCOCCOCCOCCOCCOCCOCCOCCOCCOC(=O)/C=C/c1ccc(-c2nc3c(=O)n(Cc4ccc(F)cc4)c(=O)n(Cc4ccc(F)cc4)c3[nH]2)cc1 [Example 58, (E)-4-(1,3-bis(4-fluorobenzyl)-1,2,3,6-tetrahydro-2,6-dioxo-9H-purin-8-yl)cinnamic Acid Nonaethylene Glycol Methyl Ether Ester] | < 0.1 nM |  |
| COCCOCCOCCOCCOCCOCCOCCOCCOCCOC(=O)/C=C/c1ccc(-c2nc3c(c(=O)n(CC4CCCCC4)c(=O)n3CC3CCCCC3)n2CC(C)=O)cc1 [Example 81, (E)-4-(1,3-Bis(cyclohexylmethyl)-2,3,6,7-tetrahydro-2,6-dioxo7-(2-oxo-2-methylethyl)-1H-purin-8-yl)cinnamic Acid Nonaethylene Glycol Methyl Ether Ester] | 16 ± 18 nM |  |
| COCCOCCOCCOCCOCCOCCOCCOCCOCCOC(=O)/C=C/c1ccc(-c2nc3c(c(=O)n(CC4CCCCC4)c(=O)n3CC3CCCCC3)n2Cc2ccccc2)cc1 [Example 77, (E)-4-(1,3-Bis(cyclohexylmethyl)-2,3,6,7-tetrahydro-2,6-dioxo-7-benzyl-1H-purin-8-yl)cinnamic Acid Nonaethylene Glycol Methyl Ether Ester] | 9.6 ± 5 nM |  |
| COCCOCCOCCOCCOCCOCCOCCOCCOCCOC(=O)/C=C/c1ccc(-c2nc3c(=O)n(CC4CC5CCC4C5)c(=O)n(CC4CC5CCC4C5)c3[nH]2)cc1 (stereo not drawn) [Example 45, (E)-4-(1,3-bis(bicyclo(2.2.1)hept-2-ylmethyl)-1,2,3,6-tetrahydro-2,6-dioxo-9H-purin-8-yl)cinnamic Acid Nonaethylene Glycol Methyl Ether Ester] | 42 ± 24 nM |  |
| COCCOCCOCCOCCOCCOCCOCCOCCOCCOC(=O)/C=C/c1ccc(-c2nc3c(=O)n(C)c(=O)n(Cc4cccc(C#N)c4)c3[nH]2)cc1 [Example 52, (E)-4-(1-methyl-3-(3-cyanobenzyl)-1,2,3,6-tetrahydro-2,6-dioxo-9H-purin-8-yl)cinnamic Acid Nonaethylene Glycol Methyl Ether Ester] | 410 ± 60 nM |  |
| COCCOCCOCCOCCOCCOCCOCCOCCOCCNC(=O)/C=C/c1ccc(-c2nc3c(c(=O)n(CC4CCCCC4)c(=O)n3CC3CCCCC3)n2C)cc1 [Example 91, (E)-4-(1,3-Bis(cyclohexylmethyl)-2,3,6,7-tetrahydro-2,6-dioxo-7-methyl-1H-purin-8-yl)cinnamic Acid Nonaethylene Glycol Methyl Ether Amide] | 60 ± 29 nM |  |
| COCCOCCOCCOCCOCCOCCOCCOCCOCCNC(=O)c1ccc(-c2nc3c(=O)n(CC4CCCCC4)c(=O)n(CC4CCCCC4)c3[nH]2)nc1 [Example 99, 6-(1,3-Bis(cyclohexylmethyl)-1,2,3,6-tetrahydro-2,6-dioxo-9H-purin-8-yl)nicotinic Acid Nonaethylene Glycol Methyl Ether Amide] | 77 ± 29 nM |  |
| CCCn1c(=O)c2nc(-c3cccc(/C=C/C(=O)OCCOCCOCCOCCOCCOCCOCCOCCOCCOC)c3)[nH]c2n(Cc2ccccc2)c1=O [Example 39, (E)-3-((1-propyl-3-benzyl)-1,2,3,6-tetrahydro-2,6-dioxo-9H-purin-8-yl)cinnamic Acid Nonaethylene Glycol Methyl Ether Ester] | 130 ± 80 nM |  |
| CCCn1c(=O)c2nc(-c3ccc(/C=C/C(=O)OCCOCCOCCOCCOCCOCCOCCOCCOCCOC)cc3)[nH]c2n(CCC)c1=O [Example 37, (E)-4-(1,3-bis(propyl)-1,2,3,6-tetrahydro-2,6-dioxo-9H-purin-8-yl)cinnamic Acid Nonaethylene Glycol Methyl Ether Ester] | 98 ± 33 nM |  |
| COCCOCCOCCOCCOCCOCCOCCOCCOCCOC(=O)/C=C/c1ccc(-c2nc3c(=O)n(C)c(=O)n(CC(C)C)c3[nH]2)cc1 [Example 63, (E)-4-(1-methyl-3-(2-methylpropyl)-1,2,3,6-tetrahydro-2,6-dioxo-9H-purin-8-yl)cinnamic Acid Nonaethylene Glycol Methyl Ether Ester] | 55 ± 34 nM |  |
| COCCOCCOCCOCCOCCOCCOCCOCCOCCOCc1ccc(-c2nc3c([nH]2)c(=O)n(CC2CCCCC2)c(=O)n3CC2CCCCC2)cc1 [Example 96, 1,3-Bis(cyclohexylmethyl)-8-[4-(2,5,8,11,14,17,20,23,26,29-decaoxatriacont-1-yl)phenyl]-3,7-dihydro-1H-purine-2,6-dione] |  | 49 ± 16 nM |
| COCCOCCOCCOCCOCCOCCOCCOCCOCCOC(=O)/C=C/c1ccc(-c2nc3c(=O)n(-c4ccccc4)c(=O)n(-c4ccccc4)c3[nH]2)cc1 [Example 42, (E)-4-(1,3-bis(phenyl)-1,2,3,6-tetrahydro-2,6-dioxo-9H-purin-8-yl)cinnamic Acid Nonaethylene Glycol Methyl Ether Ester] | 12 ± 12 nM |  |
| COCCOCCOCCOCCOCCOCCOCCOCCOCCOC(=O)/C=C/c1ccc(-c2nc3c(=O)n(Cc4ccccc4)c(=S)n(Cc4ccccc4)c3[nH]2)cc1 [Example 50, (E)-4-(1,3-bis(benzyl)-1,2,3,6-tetrahydro-2-thioxo-6-oxo-9H-purin-8-yl)cinnamic Acid Nonaethylene Glycol Methyl Ether Ester] | 270 ± 150 nM |  |
| COCCOCCOCCOCCOCCOCCOCCOCCOCCOC(=O)/C=C/c1ccc(-c2nc3c(=O)n(Cc4cccnc4)c(=O)n(Cc4cccnc4)c3[nH]2)cc1 [Example 64, (E)-4-(1,3-Bis(3-pyridinylmethyl)-1,2,3,6-tetrahydro-2,6-dioxo-9H-purin-8-yl)cinnamic Acid Nonaethylene Glycol Methyl Ether Ester] | > 1000 nM |  |
| COCCOCCOCCOCCOCCOCCOCCOCCOCCOC(=O)/C=C/c1ccc(-c2nc3c(=O)n(CC4CC4)c(=O)n(CC4CC4)c3[nH]2)cc1 [Example 38, (E)-4-(1,3-bis(cyclopropylmethyl)-1,2,3,6-tetrahydro-2,6-dioxo-9H-purin-8-yl)cinnamic Acid Nonaethylene Glycol Methyl Ether Ester] | 150 ± 83 nM |  |
| COCCOCCOCCOCCOCCOCCOCCOCCOCCOC(=O)/C=C/c1cccc(-c2nc3c(=O)n(Cc4ccccc4)c(=O)n(Cc4ccccc4)c3[nH]2)c1 [Example 46, (E)-3-(1,3-bis(benzyl)-1,2,3,6-tetrahydro-2,6-dioxo-9H-purin-8-yl)cinnamic Acid Nonaethylene Glycol Methyl Ether Ester] | 890 ± 420 nM |  |
| COCCOCCOCCOC(=O)/C=C/c1ccc(-c2nc3c(c(=O)n(CC4CCCCC4)c(=O)n3CC3CCCCC3)n2CCOCCOCCOC)cc1 [Example 97] | > 1000 nM |  |
| COCCOCCOCCOCCOCCOCCOCCOCCOCCOC(=O)/C=C/c1ccc(-c2nc3c(c(=O)n(CC4CCCCC4)c(=O)n3CC3CCCCC3)n2CN2CCOCC2)cc1 [Example 82, (E)-4-(1,3-Bis(cyclohexylmethyl)-2,3,6,7-tetrahydro-2,6-dioxo-7-(4-morpholinylmethyl)-1H-purin-8-yl)cinnamic Acid Nonaethylene Glycol Methyl Ether Ester] | 19 ± 16 nM |  |
| COCCOCCOCCOCCOCCOCCOCCOCCOCCOC(=O)/C=C/c1ccc(-c2nc3c(c(=O)[nH]c(=O)n3CC3CCCCC3)n2C)cc1 [Example 104, (E)-4-[(3-Cyclohexylmethyl)-2,3,6,7-tetrahydro-2,6dioxo-7-methyl-1H-purin-8-yl]cinnamic Acid Nonaethylene Glycol Methyl Ether Ester] | 86 ± 54 nM |  |
| COCCOCCOCCOCCOCCOCCOCCOCCOCCOC(=O)/C=C/c1ccc(-c2nc3c(=O)[nH]c(=O)n(CC(C)C)c3[nH]2)cc1 [Example 57] | 83 ± 41 nM |  |
| CCCCn1c(=O)n(CC2CCCCC2)c(=O)c2nc(-c3ccc(/C=C/C(=O)OCCOCCOCCOCCOCCOCCOCCOCCOCCOC)cc3)[nH]c21 [Example 48] | < 0.1 nM |  |
| COCCOCCOCCOCCOCCOCCOCCOCCOCCNC(=O)c1ccc(-c2nc3c(c(=O)n(CC4CCCCC4)c(=O)n3CC3CCCCC3)n2Cc2ccccc2)cc1 [Example 93, 4-(1,3-Bis(cyclohexylmethyl)-2,3,6,7-tetrahydro-2,6-dioxo-7-benzyl-1H-purin-8-yl)benzoic Add Nonaethylene Glycol Methyl Ether Amide] | 69 ± 97 nM |  |
| COCCOCCOCCOCCOCCOCCOCCOCCOCCOC(=O)/C=C/c1ccc(-c2nc3c(=O)n(Cc4ccccc4F)c(=O)n(Cc4ccccc4F)c3[nH]2)cc1 [Example 54, (E)-4-(1,3-bis(2-fluorobenzyl)-1,2,3,6-tetrahydro-2,6-dioxo-9H-purin-8-yl)cinnamic Acid Nonaethylene Glycol Methyl Ether Ester] | 76 ± 28 nM |  |
| C#CCn1c(-c2ccc(/C=C/C(=O)OCCOCCOCCOCCOCCOCCOCCOCCOCCOC)cc2)nc2c1c(=O)n(CC1CCCCC1)c(=O)n2CC1CCCCC1 [Example 80, (E)-4-(1,3-Bis(cyclohexylmethyl)-2,3,6,7-tetrahydro-2,6-dioxo-7-(2-propynyl)-1H-purin-8-yl)cinnamic Acid Nonaethylene Glycol Methyl Ether Ester] | 10 ± 4 nM |  |
| C=C(C)Cn1c(-c2ccc(/C=C/C(=O)OCCOCCOCCOCCOCCOCCOCCOCCOCCOC)cc2)nc2c1c(=O)n(CC1CCCCC1)c(=O)n2CC1CCCCC1 [Example 86, (E)-4-(1,3-Bis(cyclohexylmethyl)-2,3,6,7-tetrahydro-2,6-dioxo-7-(2-methyl-2-propenyl)-1H-purin-8-yl)cinnamic Acid Nonaethylene Glycol Methyl Ether Ester] | 8 ± 3 nM |  |

From patent publication US6608069B1, “Phenyl xanthine derivatives” (SmithKline Beecham Corporation, priority 1998, dated 2003)
